Patent publication US10925876B2, “Methods for using triazolo-pyrazinyl soluble guanylate cyclase activators in fibrotic disorders” (Merck Sharp & Dohme Corp., priority 2016, dated 2021)

Biological target: T1, sGC α1/β1 heterodimer (Homo sapiens, UniProt Q02108+Q02153)
T1 construct: expressed in transfected cells
T1 sequence (Q02108 1-690): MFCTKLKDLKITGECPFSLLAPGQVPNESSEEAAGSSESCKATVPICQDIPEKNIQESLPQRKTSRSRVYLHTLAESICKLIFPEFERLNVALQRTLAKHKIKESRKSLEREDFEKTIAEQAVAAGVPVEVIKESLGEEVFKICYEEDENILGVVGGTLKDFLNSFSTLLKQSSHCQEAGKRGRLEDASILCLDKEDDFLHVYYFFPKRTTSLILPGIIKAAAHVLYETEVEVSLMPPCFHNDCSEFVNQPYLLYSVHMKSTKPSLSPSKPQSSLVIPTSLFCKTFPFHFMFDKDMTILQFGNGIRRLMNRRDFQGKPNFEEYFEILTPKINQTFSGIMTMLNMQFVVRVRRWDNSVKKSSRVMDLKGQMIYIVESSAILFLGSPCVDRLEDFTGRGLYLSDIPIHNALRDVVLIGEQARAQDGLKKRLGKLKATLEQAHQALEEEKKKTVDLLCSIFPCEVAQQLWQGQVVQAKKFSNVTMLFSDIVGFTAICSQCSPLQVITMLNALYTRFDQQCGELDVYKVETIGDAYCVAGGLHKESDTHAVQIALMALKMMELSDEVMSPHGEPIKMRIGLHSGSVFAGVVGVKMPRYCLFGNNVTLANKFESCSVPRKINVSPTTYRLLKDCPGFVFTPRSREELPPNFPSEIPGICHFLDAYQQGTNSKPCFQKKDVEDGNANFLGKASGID
T1 sequence (Q02153 1-619): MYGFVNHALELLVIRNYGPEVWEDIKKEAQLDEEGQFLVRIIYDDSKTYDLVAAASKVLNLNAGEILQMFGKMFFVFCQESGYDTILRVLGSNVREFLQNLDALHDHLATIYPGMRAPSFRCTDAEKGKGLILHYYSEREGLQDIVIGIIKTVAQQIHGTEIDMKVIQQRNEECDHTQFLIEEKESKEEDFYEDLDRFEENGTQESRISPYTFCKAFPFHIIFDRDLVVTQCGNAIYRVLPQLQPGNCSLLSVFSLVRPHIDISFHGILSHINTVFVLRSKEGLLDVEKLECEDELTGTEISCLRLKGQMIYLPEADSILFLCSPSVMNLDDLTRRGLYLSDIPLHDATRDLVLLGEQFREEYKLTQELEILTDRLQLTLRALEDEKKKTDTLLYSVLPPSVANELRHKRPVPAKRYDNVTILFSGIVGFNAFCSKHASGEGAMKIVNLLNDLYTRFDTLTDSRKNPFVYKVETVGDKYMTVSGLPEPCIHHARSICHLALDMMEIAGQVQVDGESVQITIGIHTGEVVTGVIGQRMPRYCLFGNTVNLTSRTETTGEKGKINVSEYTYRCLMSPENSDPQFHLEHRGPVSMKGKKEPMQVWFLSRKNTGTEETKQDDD
Test: Cell-Based sGC Functional Assay (CASA Assay), cGMP generation in CHO-K1/sGC cells;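 also: reference Compound A is a published heme-dependent sGC activator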
Settings: maximum cGMP production of Compound A set to 100% activation, read-out: % Act. (percent activation relative to Compound A)
Summary of the method: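 Intracellular cGMP quantified by HTRF competition after 1 h, 37 °C compound exposure, with or without 1 μM DETA-NO, in stable CHO-K1/sGC α1/β1 cells (4×10^5/mL; buffer with 0.5 mM IBMX, 5 mM MgCl2, 10 mM HEPES, 0.05% BSA; 2.5% DMSO). Activation normalized to reference Compound A maximum; 4P fit.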

SMILES: CC1(c2ccc(Cl)c(F)c2)C(=O)Nc2nc(-c3cn4ncnc4c(CCC(F)(F)C(F)(F)F)n3)nc(N)c21 (stereo not drawn) [Example 5B, 4-amino-5-(4-chloro-3-fluorophenyl)-5-methyl-2-(8-(3,3,4,4,4-pentafluorobutyl)-[1,2,4]triazolo[1,5-a]pyrazin-6-yl)-5H-pyrrolo[2,3-d]pyrimidin-6(7H)-one]
- Emax: 147%

SMILES: CCCCc1nc(-c2nc(N)c3c(n2)NC(=O)C3(c2ccc(C)cn2)C2CC2)cn2ncnc12 (racemic) [Example 72B, 4-amino-2-(8-butyl-[1,2,4]triazolo[1,5-a]pyrazin-6-yl)-5-cyclopropyl-5-(5-methylpyridin-2-yl)-5H-pyrrolo[2,3-d]pyrimidin-6(7H)-one]
- Emax: 82%

SMILES: Nc1nc(-c2cn3ncnc3c(CCC(F)(F)C(F)(F)F)n2)nc2c1C(c1cn(C3CC3)nn1)(C1CC1)C(=O)N2 (stereo not drawn) [Example 96B, 4-amino-5-cyclopropyl-5-(1-cyclopropyl-1H-1,2,3-triazol-4-yl)-2-(8-(3,3,4,4,4-pentafluorobutyl)-[1,2,4]triazolo[1,5-a]pyrazin-6-yl)-5H-pyrrolo[2,3-d]pyrimidin-6(7H)-one]
- Emax: 108%

SMILES: Nc1nc(-c2cn3ncnc3c(CCCC(F)(F)F)n2)nc2c1C(c1ccc(F)c(F)c1)(C1CC1)C(=O)N2 (stereo not drawn) [Example 32A, 4-amino-5-cyclopropyl-5-(3,4-difluorophenyl)-2-(8-(4,4,4-trifluorobutyl)-[1,2,4]triazolo[1,5-a]pyrazin-6-yl)-5H-pyrrolo[2,3-d]pyrimidin-6(7H)-one]
- Emax: 144%

SMILES: CCCCc1nc(-c2nc(N)c3c(n2)NC(=O)C3(c2ccccn2)C2CC2)cn2ncnc12 (stereo not drawn) [Example 116A, 4-amino-2-(8-butyl-[1,2,4]triazolo[1,5-a]pyrazin-6-yl)-5-cyclopropyl-5-(pyridin-2-yl)-5H-pyrrolo[2,3-d]pyrimidin-6(7H)-one]
- Emax: 85%

SMILES: N#Cc1ccc(C2(C3CC3)C(=O)Nc3nc(-c4cn5ncnc5c(CCC(F)(F)C(F)(F)F)n4)nc(N)c32)nc1 (stereo not drawn) [Example 118A, 6-(4-Amino-5-cyclopropyl-6-oxo-2-(8-(3,3,4,4,4-pentafluorobutyl)-[1,2,4]triazolo[1,5-a]pyrazin-6-yl)-6,7-dihydro-5H-pyrrolo[2,3-d]pyrimidin-5-yl)nicotinonitrile]
- Emax: 72%

SMILES: Cc1nc2c(Cc3ccc(F)cc3)nc(-c3nc(N)c4c(n3)NC(=O)[C@@]4(C)c3ccc(F)cc3)cn2n1 [Example 87B, (S)-4-amino-2-(8-(4-fluorobenzyl)-2-methyl-[1,2,4]triazolo[1,5-a]pyrazin-6-yl)-5-(4-fluorophenyl)-5-methyl-5H-pyrrolo[2,3-d]pyrimidin-6(7H)-one]
- Emax: 138%

SMILES: CC1(c2ccc(C(F)(F)F)cc2)C(=O)Nc2nc(-c3cn4ncnc4c(CCCC(F)(F)F)n3)nc(N)c21 (stereo not drawn) [Example 24B, 4-amino-5-methyl-2-(8-(4,4,4-trifluorobutyl)-[1,2,4]triazolo[1,5-a]pyrazin-6-yl)-5-(4-(trifluoromethyl)phenyl)-5H-pyrrolo[2,3-d]pyrimidin-6(7H)-one]
- Emax: 133%

SMILES: CC1(c2ccc(F)c(F)c2)C(=O)Nc2nc(-c3cn4ncnc4c(CCC(F)(F)F)n3)nc(N)c21 (stereo not drawn) [Example 84B, 4-amino-5-(3,4-difluorophenyl)-5-methyl-2-(8-(3,3,3-trifluoropropyl)-[1,2,4]triazolo[1,5-a]pyrazin-6-yl)-5H-pyrrolo[2,3-d]pyrimidin-6(7H)-one]
- Emax: 101%

SMILES: CCCc1nc(-c2nc(O)c3c(n2)NC(=O)C3(C)c2ccc(Cl)cc2)cn2nc(C)nc12 (stereo not drawn) [Example 168A, 5-(4-chlorophenyl)-4-hydroxy-5-methyl-2-(2-methyl-8-propyl-[1,2,4]triazolo[1,5-a]pyrazin-6-yl)-5H-pyrrolo[2,3-d]pyrimidin-6(7H)-one]
- Emax: 77%

SMILES: CCCc1nc(-c2nc(N)c3c(n2)NC(=O)C3(C)c2ccc(Cl)cc2)cn2ncnc12 (stereo not drawn) [Example 53A, 4-amino-5-(4-chlorophenyl)-5-methyl-2-(8-propyl-[1,2,4]triazolo[1,5-a]pyrazin-6-yl)-5H-pyrrolo[2,3-d]pyrimidin-6(7H)-one]
- Emax: 122%

SMILES: C[C@@]1(c2ccc(F)cc2)C(=O)Nc2nc(-c3cn4ncnc4c(CCC(F)(F)F)n3)ncc21 [Example 174A, (S)-5-(4-fluorophenyl)-5-methyl-2-(8-(3,3,3-trifluoropropyl)-[1,2,4]triazolo[1,5-a]pyrazin-6-yl)-5,7-dihydro-6H-pyrrolo[2,3-d]pyrimidin-6-one]
- Emax: 133%

SMILES: Cc1nc2c(CCC(F)(F)C(F)(F)F)nc(-c3nc(N)c4c(n3)NC(=O)C4(C)c3ccc(Cl)c(F)c3)cn2n1 (stereo not drawn) [Example 90B, 4-amino-5-(4-chloro-3-fluorophenyl)-5-methyl-2-(2-methyl-8-(3,3,4,4,4-pentafluorobutyl)-[1,2,4]triazolo[1,5-a]pyrazin-6-yl)-5H-pyrrolo[2,3-d]pyrimidin-6(7H)-one]
- Emax: 135%

SMILES: CC1(c2ccc(Cl)cc2)C(=O)Nc2nc(-c3cn4ncnc4c(CCC(F)(F)C(F)(F)F)n3)nc(O)c21 (stereo not drawn) [Example 126A, 5-(4-chlorophenyl)-4-hydroxy-5-methyl-2-(8-(3,3,4,4,4-pentafluorobutyl)-[1,2,4]triazolo[1,5-a]pyrazin-6-yl)-5H-pyrrolo[2,3-d]pyrimidin-6(7H)-one]
- Emax: 102%

SMILES: CC1(c2cnc(C(F)(F)F)cn2)C(=O)Nc2nc(-c3cn4ncnc4c(CCCC(F)(F)F)n3)nc(N)c21 (stereo not drawn) [Example 50B, 4-amino-5-methyl-2-(8-(4,4,4-trifluorobutyl)-[1,2,4]triazolo[1,5-a]pyrazin-6-yl)-5-(5-(trifluoromethyl)pyrazin-2-yl)-5H-pyrrolo[2,3-d]pyrimidin-6(7H)-one]
- Emax: 191%

SMILES: O=C1Nc2nc(-c3cn4ncnc4c(CCCC(F)(F)F)n3)nc(O)c2C1(c1ccc(C(F)(F)F)cc1)C1CC1 (stereo not drawn) [Example 144A, 5-cyclopropyl-4-hydroxy-2-(8-(4,4,4-trifluorobutyl)-[1,2,4]triazolo[1,5-a]pyrazin-6-yl)-5-(4-(trifluoromethyl)phenyl)-5H-pyrrolo[2,3-d]pyrimidin-6(7H)-one]
- Emax: 87%

SMILES: CC1(c2nnc(C3(F)CC3)o2)C(=O)Nc2nc(-c3cn4ncnc4c(CCCC(F)(F)F)n3)nc(N)c21 (stereo not drawn) [Example 109A, 4-amino-5-(5-(1-fluorocyclopropyl)-1,3,4-oxadiazol-2-yl)-5-methyl-2-(8-(4,4,4-trifluorobutyl)-[1,2,4]triazolo[1,5-a]pyrazin-6-yl)-5H-pyrrolo[2,3-d]pyrimidin-6(7H)-one]
- Emax: 92%

SMILES: Cc1ccc(C2(C3CC3)C(=O)Nc3nc(-c4cn5ncnc5c(CCCC(F)(F)F)n4)nc(N)c32)nc1 (racemic) [Example 47B, 4-amino-5-cyclopropyl-5-(5-methylpyridin-2-yl)-2-(8-(4,4,4-trifluorobutyl)-[1,2,4]triazolo[1,5-a]pyrazin-6-yl)-5H-pyrrolo[2,3-d]pyrimidin-6(7H)-one]
- Emax: 114%

SMILES: CC1(c2ccc(C(F)(F)F)cc2)C(=O)Nc2nc(-c3cn4ncnc4c(CCCC(F)(F)F)n3)nc(O)c21 (stereo not drawn) [Example 137B, 4-hydroxy-5-methyl-2-(8-(4,4,4-trifluorobutyl)-[1,2,4]triazolo[1,5-a]pyrazin-6-yl)-5-(4-(trifluoromethyl)phenyl)-5H-pyrrolo[2,3-d]pyrimidin-6(7H)-one]
- Emax: 102%

SMILES: CC1(c2ccccc2)C(=O)Nc2nc(-c3cn4ncnc4c(CCC(F)(F)C(F)(F)F)n3)nc(O)c21 (stereo not drawn) [Example 128B, 4-hydroxy-5-methyl-2-(8-(3,3,4,4,4-pentafluorobutyl)-[1,2,4]triazolo[1,5-a]pyrazin-6-yl)-5-phenyl-5H-pyrrolo[2,3-d]pyrimidin-6(7H)-one]
- Emax: 106%

SMILES: C[C@@]1(c2ccc(F)cc2)C(=O)Nc2nc(-c3cn4ncnc4c(Cc4ccc(F)cc4)n3)nc(O)c21 [Example 162B, (S)-2-(8-(4-fluorobenzyl)-[1,2,4]triazolo[1,5-a]pyrazin-6-yl)-5-(4-fluorophenyl)-4-hydroxy-5-methyl-5H-pyrrolo[2,3-d]pyrimidin-6(7H)-one]
- Emax: 100%
